Test results from PubChem BioAssay AID212 (DTP/NCI, 2004).
“And” between values parts separate entries of the source, which are not always exact repeats. Equal entries are not always repeated. Results filed as inconclusive are left out.

System: BDF1 mice, colon carcinoma 38 sc, T/C %
Test: NCI In Vivo Anticancer Drug Screen. Data for tumor model Colon Carcinoma 38 (subcutaneous) in B6D2F1 (BDF1) mice
Conditions: endpoint: median tumor weight (est.), higher = larger tumour
Procedure: The antitumor activity of compounds was measured in mice bearing transplantable tumors. Survival or tumor size were measured and the results are expressed as the measurement made in the treated group (T) divided by the measurement made in the vehicle treated control group (C). The tumor model used in this assay is Colon Carcinoma 38 (subcutaneous) in B6D2F1 (BDF1) mice

[1] = dose: 1.25 mg/kg/injection, schedule: Q07DX002 (ip), vehicle: other
[2] = dose: 3.0 mg/kg/injection, schedule: Q07DX002 (ip), vehicle: saline + alcohol
[3] = dose: 6.0 mg/kg/injection, schedule: Q07DX002 (ip), vehicle: saline + alcohol
[4] = dose: 25.0 mg/kg/injection, schedule: Q07DX002 (ip), vehicle: saline with Tween-80
[5] = dose: 100.0 mg/kg/injection, schedule: Q07DX002 (ip), vehicle: Klucel (hydroxypropylcellulose) (HPC)
[6] = dose: 200.0 mg/kg/injection, schedule: Q07DX002 (ip), vehicle: Klucel (hydroxypropylcellulose) (HPC)
[7] = dose: 400.0 mg/kg/injection, schedule: Q07DX002 (ip), vehicle: Klucel (hydroxypropylcellulose) (HPC)
[8] = dose: 12.5 mg/kg/injection, schedule: Q07DX002 (ip), vehicle: Klucel (hydroxypropylcellulose) (HPC)
[9] = dose: 25.0 mg/kg/injection, schedule: Q07DX002 (ip), vehicle: Klucel (hydroxypropylcellulose) (HPC)
[10] = dose: 50.0 mg/kg/injection, schedule: Q07DX002 (ip), vehicle: Klucel (hydroxypropylcellulose) (HPC)

CCN(CC)CCCNc1nccc2c(C)c3[nH]c4ccncc4c3cc12
T/C (dose: 0.75 mg/kg/injection, schedule: Q07DX002 (ip), vehicle: acid diluted with saline): 76 % of control | T/C (dose: 0.75 mg/kg/injection, schedule: Q07DX002 (ip), vehicle: other): 120 % of control | T/C [1]: 106 % of control | T/C (dose: 1.5 mg/kg/injection, schedule: Q07DX002 (ip), vehicle: acid diluted with saline): 100 % of control | T/C (dose: 1.5 mg/kg/injection, schedule: Q07DX002 (ip), vehicle: other): 108 % of control | T/C (dose: 3.0 mg/kg/injection, schedule: Q07DX002 (ip), vehicle: acid diluted with saline): 46 % of control | T/C (dose: 3.0 mg/kg/injection, schedule: Q07DX002 (ip), vehicle: other): 123 % of control | T/C (dose: 6.0 mg/kg/injection, schedule: Q07DX002 (ip), vehicle: acid diluted with saline): 69 % of control | T/C (dose: 6.0 mg/kg/injection, schedule: Q07DX002 (ip), vehicle: other): 66 % of control | T/C (dose: 12.0 mg/kg/injection, schedule: Q07DX002 (ip), vehicle: acid diluted with saline): 51 % of control | T/C (dose: 12.0 mg/kg/injection, schedule: Q07DX002 (ip), vehicle: other): 26 % of control | T/C (dose: 20.0 mg/kg/injection, schedule: Q07DX002 (ip), vehicle: other): 41 % of control

C/C=C\C1OC1(C)c1cc(=O)c2c(C)cc3c(c2o1)C(=O)c1c(O)c(C2CC(C)(N(C)C)C(OC(C)=O)C(C)O2)cc(C2CC(N(C)C)C(O)C(C)O2)c1C3=O (stereo unspecified)
T/C (dose: 0.38 mg/kg/injection, schedule: Q07DX002 (ip), vehicle: saline + alcohol): 119 % of control | T/C (dose: 0.75 mg/kg/injection, schedule: Q07DX002 (ip), vehicle: saline + alcohol): 85 % of control | T/C [2]: 58 % of control | T/C [3]: 53 % of control

O=Cc1ccc([N+](=O)[O-])s1
T/C (dose: 6.25 mg/kg/injection, schedule: Q07DX002 (ip), vehicle: saline with Tween-80): 124 % of control and 108 % of control | T/C [4]: 108 % of control | T/C (dose: 50.0 mg/kg/injection, schedule: Q07DX002 (ip), vehicle: saline with Tween-80): 57 % of control

COc1ccc(C(=O)/C(Br)=C/C(=O)O)cc1
T/C (dose: 4.0 mg/kg/injection, schedule: Q07DX002 (ip), vehicle: saline): 104 % of control | T/C (dose: 8.0 mg/kg/injection, schedule: Q07DX002 (ip), vehicle: saline): 98 % of control | T/C (dose: 16.0 mg/kg/injection, schedule: Q07DX002 (ip), vehicle: saline): 104 % of control | T/C (dose: 32.0 mg/kg/injection, schedule: Q07DX002 (ip), vehicle: saline): 71 % of control

Nc1ccc(C(=O)Nc2ccccc2N)cc1
T/C (dose: 12.5 mg/kg/injection, schedule: Q07DX002 (ip), vehicle: saline with Tween-80): 121 % of control | T/C (dose: 25.0 mg/kg/injection, schedule: Q01DX007 (ip), vehicle: saline with Tween-80): 160 % of control | T/C (dose: 25.0 mg/kg/injection, schedule: Q01DX007 (oral), vehicle: saline with Tween-80): 58 % of control | T/C [4]: 67 % of control | T/C (dose: 50.0 mg/kg/injection, schedule: Q01DX007 (ip), vehicle: saline with Tween-80): 71 % of control | T/C (dose: 50.0 mg/kg/injection, schedule: Q01DX007 (oral), vehicle: saline with Tween-80): 78 % of control | T/C (dose: 100.0 mg/kg/injection, schedule: Q01DX007 (ip), vehicle: saline with Tween-80): 123 % of control | T/C (dose: 100.0 mg/kg/injection, schedule: Q07DX002 (ip), vehicle: saline with Tween-80): 121 % of control | T/C (dose: 200.0 mg/kg/injection, schedule: Q01DX007 (oral), vehicle: saline with Tween-80): 76 % of control | T/C (dose: 200.0 mg/kg/injection, schedule: Q07DX002 (ip), vehicle: saline with Tween-80): 84 % of control | T/C (dose: 400.0 mg/kg/injection, schedule: Q01DX007 (oral), vehicle: saline with Tween-80): 105 % of control

O=c1[nH]c(=O)c2nc(-c3cccnc3)cnc2[nH]1
T/C (dose: 12.5 mg/kg/injection, schedule: Q07DX002 (ip), vehicle: saline): 116 % of control | T/C (dose: 25.0 mg/kg/injection, schedule: Q07DX002 (ip), vehicle: saline): 78 % of control and 81 % of control | T/C (dose: 200.0 mg/kg/injection, schedule: Q07DX002 (ip), vehicle: saline): 80 % of control and 103 % of control | T/C (dose: 400.0 mg/kg/injection, schedule: Q07DX002 (ip), vehicle: saline): 95 % of control and 97 % of control

COC1C(C)OC(OC2CC(C)(O)Cc3cc4c(c(O)c32)C(=O)c2c(O)cc3c(c2C4=O)OC2OC3(C)C(O)C(N(C)C)C2O)C(OC)C1(C)OC (stereo unspecified)
T/C (dose: 0.62 mg/kg/injection, schedule: Q07DX002 (ip), vehicle: other): 53 % of control | T/C [1]: 81 % of control | T/C (dose: 5.0 mg/kg/injection, schedule: Q07DX002 (ip), vehicle: other): 83 % of control | T/C (dose: 10.0 mg/kg/injection, schedule: Q07DX002 (ip), vehicle: other): 89 % of control

Cc1cc(=O)c2cccc(CC(=O)O)c2o1
T/C [5]: 119 % of control | T/C [6]: 114 % of control | T/C [7]: 76 % of control

O=C(O)CSc1nc(-c2ccccc2)c(-c2ccccc2)n1-c1ccccn1
T/C [8]: 92 % of control | T/C [9]: 83 % of control | T/C (dose: 25.0 mg/kg/injection, schedule: Q07DX002 (ip), vehicle: water): 114 % of control | T/C [10]: 72 % of control | T/C (dose: 50.0 mg/kg/injection, schedule: Q07DX002 (ip), vehicle: water): 112 % of control | T/C [5]: 106 % of control | T/C (dose: 100.0 mg/kg/injection, schedule: Q07DX002 (ip), vehicle: water): 95 % of control | T/C [6]: 73 % of control | T/C (dose: 200.0 mg/kg/injection, schedule: Q07DX002 (ip), vehicle: water): 89 % of control

C/C=C/c1cc2n(c1)C(=O)c1cc(OC3OC(C)C(NC)C(C)(O)C3O)c(C)c(O)c1NC2O (stereo unspecified)
T/C (dose: 32.0 micrograms/kg/injection, schedule: Q07DX002 (ip), vehicle: saline): 42 % of control

O=c1[nH]cnc2n[nH]nc12
T/C [8]: 122 % of control | T/C [9]: 110 % of control | T/C [10]: 100 % of control | T/C [5]: 87 % of control | T/C [6]: 77 % of control | T/C [7]: 88 % of control

O=NN(CCCl)C(=O)NCCCl
T/C (dose: 1.0 mg/kg/injection, schedule: Q07DX002 (ip), vehicle: saline with Tween-80): 92 % of control | T/C (dose: 2.5 mg/kg/injection, schedule: Q07DX002 (ip), vehicle: saline with Tween-80): 66 % of control | T/C [2]: 96 % of control | T/C (dose: 4.0 mg/kg/injection, schedule: Q07DX002 (ip), vehicle: saline with Tween-80): 82 % of control | T/C (dose: 4.0 mg/kg/injection, schedule: Q07DX003 (ip), vehicle: saline with Tween-80): 97 % of control and 98 % of control | T/C (dose: 5.0 mg/kg/injection, schedule: Q07DX002 (ip), vehicle: saline with Tween-80): 82 % of control | T/C [3]: 88 % of control | T/C (dose: 8.0 mg/kg/injection, schedule: Q07DX003 (ip), vehicle: saline with Tween-80): 71 % of control and 87 % of control | T/C (dose: 10.0 mg/kg/injection, schedule: Q07DX002 (ip), vehicle: saline with Tween-80): 43 % of control | T/C (dose: 12.0 mg/kg/injection, schedule: Q07DX002 (ip), vehicle: saline + alcohol): 59 % of control | T/C (dose: 20.0 mg/kg/injection, schedule: Q07DX002 (ip), vehicle: saline with Tween-80): 15 % of control | T/C (dose: 24.0 mg/kg/injection, schedule: Q07DX002 (ip), vehicle: saline + alcohol): 37 % of control | T/C (dose: 32.0 mg/kg/injection, schedule: Q07DX003 (ip), vehicle: saline with Tween-80): 24 % of control

CC1=CC2C(O)(CC(CO)=CC3C4C(C)(C)C4(OC(=O)c4ccccc4)C(OC(=O)c4ccccc4)C(C)C32O)C1=O (stereo unspecified)
T/C (dose: 0.5 mg/kg/injection, schedule: Q07DX002 (ip), vehicle: saline with Tween-80): 156 % of control | T/C (dose: 2.0 mg/kg/injection, schedule: Q07DX002 (ip), vehicle: saline with Tween-80): 167 % of control
